{"source": "patent US20100273769A1", "about": "“COMPOSITION AND METHOD FOR THE TREATMENT OF PARKINSON'S DISEASE” (priority 2009, published 2010)", "key": {"wildtype human LRRK2": {"molecular_target": "T1, wildtype human LRRK2 (Homo sapiens, UniProt Q5S007)", "T1 construct": "human LRRK2 protein fragment encompassing amino acids 1326 to 2527; GST; made in house", "T1 sequence (Q5S007 1326-2527)": "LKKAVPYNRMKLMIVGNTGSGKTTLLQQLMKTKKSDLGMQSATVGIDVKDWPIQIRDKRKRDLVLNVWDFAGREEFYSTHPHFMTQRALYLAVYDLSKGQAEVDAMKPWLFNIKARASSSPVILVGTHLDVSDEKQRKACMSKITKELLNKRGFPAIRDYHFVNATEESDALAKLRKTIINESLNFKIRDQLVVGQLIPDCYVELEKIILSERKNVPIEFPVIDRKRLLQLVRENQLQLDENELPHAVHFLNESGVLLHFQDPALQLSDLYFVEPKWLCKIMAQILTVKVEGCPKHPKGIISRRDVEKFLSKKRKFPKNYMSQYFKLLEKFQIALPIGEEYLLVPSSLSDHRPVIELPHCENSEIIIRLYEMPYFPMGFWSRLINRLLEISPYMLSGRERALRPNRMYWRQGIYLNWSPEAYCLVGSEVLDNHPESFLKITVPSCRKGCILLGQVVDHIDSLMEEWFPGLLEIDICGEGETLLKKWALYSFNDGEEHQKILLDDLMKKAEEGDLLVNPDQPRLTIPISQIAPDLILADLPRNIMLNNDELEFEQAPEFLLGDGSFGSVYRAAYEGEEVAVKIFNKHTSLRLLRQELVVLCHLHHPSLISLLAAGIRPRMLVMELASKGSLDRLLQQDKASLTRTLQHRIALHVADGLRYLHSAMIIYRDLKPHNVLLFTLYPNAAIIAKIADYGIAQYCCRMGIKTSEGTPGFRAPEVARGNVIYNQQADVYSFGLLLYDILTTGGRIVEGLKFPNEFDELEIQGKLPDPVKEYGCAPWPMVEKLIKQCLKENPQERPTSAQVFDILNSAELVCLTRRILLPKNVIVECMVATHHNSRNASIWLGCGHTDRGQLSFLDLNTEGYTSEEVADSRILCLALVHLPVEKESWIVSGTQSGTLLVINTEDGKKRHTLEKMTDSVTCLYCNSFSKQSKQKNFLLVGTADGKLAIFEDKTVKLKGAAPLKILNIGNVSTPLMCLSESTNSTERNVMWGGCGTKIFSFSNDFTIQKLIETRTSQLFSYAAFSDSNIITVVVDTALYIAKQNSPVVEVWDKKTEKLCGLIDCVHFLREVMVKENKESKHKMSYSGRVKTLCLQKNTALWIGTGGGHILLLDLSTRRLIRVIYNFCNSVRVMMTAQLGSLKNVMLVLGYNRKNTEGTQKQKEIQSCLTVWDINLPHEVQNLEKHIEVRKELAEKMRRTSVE", "assay": "Adapta assay, inhibition of wildtype human LRRK2 kinase fragment with LRRKtide", "format": "biochemical"}, "ERK2": {"molecular_target": "ERK2 (Homo sapiens, UniProt P28482)", "sequence (P28482 whole entry, species assumed)": "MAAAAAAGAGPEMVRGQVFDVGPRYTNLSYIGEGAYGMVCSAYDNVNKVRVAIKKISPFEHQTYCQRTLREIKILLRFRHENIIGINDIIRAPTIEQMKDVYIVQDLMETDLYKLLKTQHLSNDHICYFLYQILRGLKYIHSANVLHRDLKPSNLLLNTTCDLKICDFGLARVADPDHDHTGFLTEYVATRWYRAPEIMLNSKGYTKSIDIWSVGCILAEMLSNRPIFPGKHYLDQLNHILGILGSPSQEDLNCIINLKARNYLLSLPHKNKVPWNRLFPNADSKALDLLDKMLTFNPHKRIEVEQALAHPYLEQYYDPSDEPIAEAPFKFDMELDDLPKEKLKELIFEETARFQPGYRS", "assay": "Kinase specificity, ERK2", "format": "biochemical", "conditions": "100 μM ATP"}, "Cdk1": {"molecular_target": "Cdk1 (Homo sapiens, UniProt P06493)", "sequence (P06493 whole entry, species assumed)": "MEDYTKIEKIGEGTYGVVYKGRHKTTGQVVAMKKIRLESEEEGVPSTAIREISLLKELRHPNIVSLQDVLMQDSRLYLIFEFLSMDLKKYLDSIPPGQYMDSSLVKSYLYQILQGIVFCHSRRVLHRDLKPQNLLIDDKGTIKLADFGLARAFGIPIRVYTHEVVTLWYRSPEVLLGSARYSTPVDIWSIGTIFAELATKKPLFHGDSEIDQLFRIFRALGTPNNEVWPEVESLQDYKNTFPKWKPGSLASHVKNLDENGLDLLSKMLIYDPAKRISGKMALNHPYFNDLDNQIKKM", "sequence (P14635 whole entry partner, species assumed)": "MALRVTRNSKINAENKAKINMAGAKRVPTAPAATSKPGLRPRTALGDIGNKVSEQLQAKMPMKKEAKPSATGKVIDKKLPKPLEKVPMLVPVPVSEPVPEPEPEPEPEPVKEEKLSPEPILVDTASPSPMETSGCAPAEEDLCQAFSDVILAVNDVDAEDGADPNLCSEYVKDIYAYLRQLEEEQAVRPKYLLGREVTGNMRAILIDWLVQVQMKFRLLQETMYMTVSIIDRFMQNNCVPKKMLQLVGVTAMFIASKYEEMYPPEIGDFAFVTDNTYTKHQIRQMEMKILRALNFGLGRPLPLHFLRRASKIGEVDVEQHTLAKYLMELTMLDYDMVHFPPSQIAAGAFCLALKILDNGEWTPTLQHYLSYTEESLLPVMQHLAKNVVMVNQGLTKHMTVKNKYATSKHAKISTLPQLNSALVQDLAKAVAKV", "assay": "Kinase specificity, Cdk1", "format": "biochemical", "conditions": "100 μM ATP"}, "GSK3": {"molecular_target": "GSK3", "assay": "Kinase specificity, GSK3", "format": "biochemical", "conditions": "100 μM ATP"}, "PKC": {"molecular_target": "PKC", "assay": "Kinase specificity, PKC", "format": "biochemical", "conditions": "100 μM ATP"}, "PKA": {"molecular_target": "PKA", "assay": "Kinase specificity, PKA", "format": "biochemical", "conditions": "100 μM ATP"}, "LRRK2": {"molecular_target": "LRRK2 (Homo sapiens, UniProt Q5S007)", "sequence (Q5S007 whole entry)": "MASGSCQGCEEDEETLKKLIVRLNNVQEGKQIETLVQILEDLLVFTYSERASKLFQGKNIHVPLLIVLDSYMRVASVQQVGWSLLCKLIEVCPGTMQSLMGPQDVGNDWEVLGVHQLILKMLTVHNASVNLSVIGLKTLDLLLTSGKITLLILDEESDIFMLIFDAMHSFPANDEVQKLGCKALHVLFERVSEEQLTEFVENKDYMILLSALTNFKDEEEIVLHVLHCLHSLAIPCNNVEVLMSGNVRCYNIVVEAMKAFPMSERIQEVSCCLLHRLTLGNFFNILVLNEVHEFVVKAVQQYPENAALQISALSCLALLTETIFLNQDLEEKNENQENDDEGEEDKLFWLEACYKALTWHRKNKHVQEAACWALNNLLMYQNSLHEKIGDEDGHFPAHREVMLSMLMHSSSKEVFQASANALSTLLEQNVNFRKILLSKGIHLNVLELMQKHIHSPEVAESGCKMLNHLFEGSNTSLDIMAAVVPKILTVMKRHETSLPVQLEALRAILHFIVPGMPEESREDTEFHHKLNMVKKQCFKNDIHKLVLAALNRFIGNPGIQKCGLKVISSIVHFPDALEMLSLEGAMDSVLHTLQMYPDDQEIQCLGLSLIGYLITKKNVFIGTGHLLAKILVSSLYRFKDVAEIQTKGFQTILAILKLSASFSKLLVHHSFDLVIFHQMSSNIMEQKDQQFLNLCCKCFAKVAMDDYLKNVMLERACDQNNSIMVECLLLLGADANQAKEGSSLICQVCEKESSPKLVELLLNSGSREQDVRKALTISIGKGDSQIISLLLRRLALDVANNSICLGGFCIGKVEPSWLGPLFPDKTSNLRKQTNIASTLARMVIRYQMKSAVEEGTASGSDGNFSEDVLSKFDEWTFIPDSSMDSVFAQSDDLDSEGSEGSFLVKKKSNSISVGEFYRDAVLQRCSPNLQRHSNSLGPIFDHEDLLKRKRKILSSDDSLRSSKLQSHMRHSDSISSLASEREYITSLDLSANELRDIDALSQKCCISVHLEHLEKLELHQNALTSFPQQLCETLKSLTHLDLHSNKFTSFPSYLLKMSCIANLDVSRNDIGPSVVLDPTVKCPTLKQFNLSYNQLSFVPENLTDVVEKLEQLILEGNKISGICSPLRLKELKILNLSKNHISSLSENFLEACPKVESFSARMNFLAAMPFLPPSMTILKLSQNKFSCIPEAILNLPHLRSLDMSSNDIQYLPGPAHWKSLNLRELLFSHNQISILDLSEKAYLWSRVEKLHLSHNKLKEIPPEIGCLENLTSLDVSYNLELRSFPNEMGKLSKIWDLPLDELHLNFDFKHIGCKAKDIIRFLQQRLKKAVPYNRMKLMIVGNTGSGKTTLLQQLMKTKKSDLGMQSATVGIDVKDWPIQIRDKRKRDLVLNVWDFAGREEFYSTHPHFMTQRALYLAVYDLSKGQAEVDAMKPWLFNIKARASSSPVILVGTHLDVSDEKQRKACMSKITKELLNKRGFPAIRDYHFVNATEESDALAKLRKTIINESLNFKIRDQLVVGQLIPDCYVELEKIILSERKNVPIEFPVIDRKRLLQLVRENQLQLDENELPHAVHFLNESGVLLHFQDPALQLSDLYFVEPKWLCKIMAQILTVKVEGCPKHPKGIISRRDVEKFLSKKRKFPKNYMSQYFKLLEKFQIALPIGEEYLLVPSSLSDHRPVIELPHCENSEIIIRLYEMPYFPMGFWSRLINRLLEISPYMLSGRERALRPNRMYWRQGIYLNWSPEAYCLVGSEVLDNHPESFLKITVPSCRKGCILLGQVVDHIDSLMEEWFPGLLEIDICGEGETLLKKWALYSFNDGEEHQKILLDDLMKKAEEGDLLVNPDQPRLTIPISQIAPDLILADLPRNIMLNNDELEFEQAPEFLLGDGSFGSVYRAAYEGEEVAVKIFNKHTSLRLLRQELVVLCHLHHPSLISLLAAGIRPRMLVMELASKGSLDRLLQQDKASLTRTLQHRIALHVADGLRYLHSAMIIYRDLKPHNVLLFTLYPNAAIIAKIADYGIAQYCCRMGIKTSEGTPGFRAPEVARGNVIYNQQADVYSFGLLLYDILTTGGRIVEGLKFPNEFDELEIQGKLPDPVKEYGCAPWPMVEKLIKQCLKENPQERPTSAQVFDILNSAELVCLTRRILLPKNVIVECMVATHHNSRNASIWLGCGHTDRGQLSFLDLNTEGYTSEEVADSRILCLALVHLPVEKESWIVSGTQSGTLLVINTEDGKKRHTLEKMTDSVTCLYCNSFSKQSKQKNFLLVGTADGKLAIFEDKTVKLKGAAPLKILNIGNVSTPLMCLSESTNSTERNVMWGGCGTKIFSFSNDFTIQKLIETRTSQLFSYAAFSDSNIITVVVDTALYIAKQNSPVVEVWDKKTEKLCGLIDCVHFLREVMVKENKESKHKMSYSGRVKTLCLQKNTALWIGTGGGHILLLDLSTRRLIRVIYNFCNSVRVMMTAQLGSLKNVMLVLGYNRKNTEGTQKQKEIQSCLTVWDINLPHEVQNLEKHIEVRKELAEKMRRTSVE", "conditions": "Covy and Giasson 2009; Anand et al. 2009; cited from earlier work"}, "[1]": {"test_system": "R1441C LRRK2 transgenic C. elegans", "assay": "Food-sensing (slowing) response in LRRK2 transgenic C. elegans", "format": "in vivo", "conditions": "2 mM added to the assay, FIG. 5 inset", "experimental": "Dopaminergic neurons in C. elegans are involved in food sensing behavior such that in the absence of food worms move more rapidly, as assessed by determining their bending frequency on an agar plate not supplied with food. In an established assay the animals are then exposed to food, and the difference in motility is recorded in the form of bending frequency [Sawin et al., Neuron 26, 619-631 (2000)]. […] In approximate synchrony with the dopaminergic neurodegeneration this slowing response is essentially eliminated after 4 days. […] The slowing response can be reconstituted to a substantial degree by supplementation with dopamine, confirming that the phenotype is due to loss of dopaminergic input (FIG. 5).\nThe clear-cut functional phenotype of this model can be used to determine the efficacy of LRRK2 kinase inhibitors and the accurate determination of their potency in a biological context. […] The potency is expressed as the half-maximal restoration of the slowing response. […]\nThe functional consequence of dopaminergic neurodegeneration was assayed using the food-sensing response resulting in a slowing of motility after food exposure as assessed by the frequency of body bending within 20 second intervals in groups of 10 animals [Sawin et al., Neuron 26, 619-631 (2000)]. […]"}, "[2]": {"assay": "Lethal plasma concentration after single dosing", "format": "in vivo", "conditions": "read-out: LC50 as plasma concentration"}}, "note": "Like-named read-outs stand apart in the source and are kept apart here."}
{"smiles": "COC(=O)[C@@]1(N)CC2OC1(C)n1c3ccccc3c3c4c(c5c6ccccc6n2c5c31)C(=O)NC4", "note": "(stereo partly drawn) [Compound 5]", "values": [{"measurement": "IC50", "setting": "wildtype human LRRK2; 100 μM ATP, read-out: LRRK2", "value": 1, "unit": "nM"}, {"measurement": "IC50", "setting": "wildtype human LRRK2; 100 microM ATP, read-out: LRRK2 inhibitory potency (essentially receptor-limited)", "value": "≤ 1", "unit": "nM"}, {"measurement": "IC50", "setting": "ERK2", "value": 350, "unit": "nM"}, {"measurement": "IC50", "setting": "Cdk1", "value": 260, "unit": "nM"}]}
{"smiles": "CC12OC(C[C@]1(N)CO)n1c3ccccc3c3c4c(c5c6ccccc6n2c5c31)CNC4=O", "note": "(stereo partly drawn) [Compound 13]", "values": [{"measurement": "IC50", "setting": "wildtype human LRRK2; 100 μM ATP, read-out: LRRK2", "value": 1, "unit": "nM"}]}
{"smiles": "CNC(=O)[C@@]1(N)CC2OC1(C)n1c3ccccc3c3c4c(c5c6cc(Br)ccc6n2c5c31)C(=O)NC4", "note": "(stereo partly drawn) [Compound 14]", "values": [{"measurement": "IC50", "setting": "wildtype human LRRK2; 100 μM ATP, read-out: LRRK2", "value": 1.2, "unit": "nM"}]}
{"smiles": "CNC(=O)C1(N)CC2OC1(C)n1c3ccc(Br)cc3c3c4c(c5c6cc(Br)ccc6n2c5c31)C(=O)NC4", "note": "(stereo not drawn) [Compound 15]", "values": [{"measurement": "IC50", "setting": "wildtype human LRRK2; 100 μM ATP, read-out: LRRK2", "value": 1.5, "unit": "nM"}]}
{"smiles": "COC(=O)[C@@]1(O)C[C@H]2O[C@]1(C)n1c3ccccc3c3c4c(c5c6ccccc6n2c5c31)C(=O)NC4", "note": "[Compound K252a, K252a, reference compound]", "values": [{"measurement": "IC50", "setting": "wildtype human LRRK2", "value": 220, "unit": "nM"}, {"measurement": "Potency for LRRK2 inhibition lower than that of compound 5", "setting": "wildtype human LRRK2; direct comparison", "value": "more than 2 orders of magnitude"}, {"measurement": "IC50", "setting": "ERK2", "value": 120, "unit": "nM"}, {"measurement": "IC50", "setting": "Cdk1", "value": 310, "unit": "nM"}, {"measurement": "IC50", "setting": "GSK3", "value": "> 10000", "unit": "nM"}, {"measurement": "IC50", "setting": "PKC", "value": 5000, "unit": "nM"}, {"measurement": "IC50", "setting": "PKA", "value": 3400, "unit": "nM"}, {"measurement": "Activity as inhibitor of LRRK2", "setting": "LRRK2", "value": "active as inhibitors of LRRK2"}]}
{"smiles": "Cl.NCCc1ccc(O)c(O)c1", "note": "[dopamine hydrochloride, reference compound]", "values": [{"measurement": "Loss of the food-sensing response in impaired LRRK2 worms", "setting": "[1]", "value": "partially rescued"}]}
{"smiles": "CN[C@@H]1C[C@H]2O[C@@](C)([C@@H]1OC)n1c3ccccc3c3c4c(c5c6ccccc6n2c5c31)C(=O)NC4", "note": "[staurosporine]", "values": [{"measurement": "LC50", "setting": "[2]", "value": "200 to 300", "unit": "nM"}, {"measurement": "Activity as inhibitor of LRRK2", "setting": "LRRK2", "value": "active as inhibitors of LRRK2"}]}
